In publication doi:10.1101/2021.04.29.441652v1 (biorxiv, 2021):

These compounds were tested against human σ2 receptor (TMEM97) (Homo sapiens, UniProt Q5BJF2) (assay: biochemical). Conditions: read-out: % of control remaining.
human σ2 receptor (TMEM97), sequence (Q5BJF2 whole entry): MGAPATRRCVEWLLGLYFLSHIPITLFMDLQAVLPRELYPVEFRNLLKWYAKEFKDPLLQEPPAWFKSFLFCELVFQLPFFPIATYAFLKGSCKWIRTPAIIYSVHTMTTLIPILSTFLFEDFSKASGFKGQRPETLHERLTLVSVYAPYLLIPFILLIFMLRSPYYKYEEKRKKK
Format: Expi293 membranes
In the case of `C[C@@H](C(=O)Nc1cccc(C2CCCCC2)c1)N1CCN(C)CC1` [ZINC000529649527], the remaining activity at 1 µM is reported as 84.3%.
Work on `Fc1cc(Br)cnc1N1CCN(CCc2cccs2)CC1` [ZINC000681377109] yielded a remaining activity at 1 µM of 114%.
With `CC[C@@]1(C)Oc2ccc(NC(=O)C(=O)NC[C@@H]3CCN(C)C3)cc2O1` [ZINC000276781830] the remaining activity at 1 µM was 97.6%.
With `CCN(CC)c1ncc(CN2CC(C(C)C)C2)s1` [ZINC000684407814] the remaining activity at 1 µM was 70.6%.
With `C[C@H](C(=O)N[C@H]1C[C@H]2CC[C@@H]1N2CCOCC1CC1)c1cccs1` [ZINC001109713565] the remaining activity at 1 µM was 28.7%.
`CC(C)(C)N1CCC(NC(=O)c2ncccc2Br)CC1` [ZINC000194878845] gave a remaining activity at 1 µM of 109%.
In the case of `O=C([C@H]1Cc2ccccc21)N1CC[C@H](NCc2ccncc2Cl)C1` [ZINC001019309159], the remaining activity at 1 µM is reported as 99.6%.
`C[C@@H](Cc1c(Cl)cccc1Cl)NC(=O)c1cn(C[C@@H]2CCCN2)nn1` [ZINC000646273308] showed a remaining activity at 1 µM of 106%.
With `Cc1ccc([C@H](NC[C@@]2(O)CCN(C)C2)c2ccccc2)cc1` [ZINC000358253868] the remaining activity at 1 µM was 52.1%.
Compound `O=C(C[C@@H]1CCCN1CCOc1cccc([N+](=O)[O-])c1)c1cccs1` [ZINC000430988927] has a remaining activity at 1 µM of 7.5%.
`Cc1csc2nc(CN[C@](C)(CO)Cc3ccc(F)cc3)cc(=O)n12` [ZINC000933438523] gave a remaining activity at 1 µM of 28.1%.
For `COc1ccccc1O[C@H](C)CN[C@@H](C)c1ccccc1OC` [ZINC000129576345], the remaining activity at 1 µM was 14.2%.
With `O=C(Nc1cnc2ccccc2c1)[C@]1(O)CCN(Cc2ccccc2)C1` [ZINC000524392254] the remaining activity at 1 µM was 93.9%.
Work on `C=CCC1(O)CCN([C@H](C)C(=O)N[C@@H](C)c2ccc(Cl)cc2)CC1` [ZINC000886762228] yielded a remaining activity at 1 µM of 110%.
Work on `C[C@@H]1CCCN1CC(=O)NCC(=O)N[C@H](C)c1ccc(F)cc1` [ZINC000245453841] yielded a remaining activity at 1 µM of 114%.
With `COc1ccc2cc(CN[C@](C)(CO)C(C)C)ccc2c1` [ZINC000398583627] the remaining activity at 1 µM was 14.6%.
Compound `Cc1ccc(CN2C[C@@H]3CN(C(=O)c4cccn4C)C[C@@H]3C2)cc1C` [ZINC001048683995] has a remaining activity at 1 µM of 61.7%.
`c1cncc(-c2nc(N3CCC[C@H](N4CCCC4)C3)c3ccccc3n2)c1` [ZINC000076836015] was tested, and the remaining activity at 1 µM was 60.5%.
`O=C(Nc1cnn(CC2CC2)c1)C(=O)N1CCC[C@H]([C@@H]2CCNC2)C1` [ZINC000667676804] gave a remaining activity at 1 µM of 94.4%.
With `CC(C)(CO)N1CCN(c2nc3c(Br)cccc3s2)CC1` [ZINC000621267824] the remaining activity at 1 µM was 33.4%.
`CN1CC[C@H]2CCN(C(=O)C(=O)Nc3cnc4c(c3)COCC4)[C@@H]2C1` [ZINC000679371269] gave a remaining activity at 1 µM of 114%.
Work on `C[C@@]1(C(=O)N[C@H]2CC23CCN(CC(=O)NC2CC2)CC3)CCNC1=O` [ZINC001016825715] yielded a remaining activity at 1 µM of 106%.
`COc1ccc(C(=O)N(C)C[C@H](C)NCC2CCC(C)(C)CC2)nn1` [ZINC001403624658] gave a remaining activity at 1 µM of 65.3%.
`N#Cc1ccc(N2CCN(C[C@H](O)CC3CCCC3)CC2)c(F)c1` [ZINC000352856249] gave a remaining activity at 1 µM of 43%.
In the case of `CN(C(=O)c1c[nH]c(=O)cn1)C1CN(C(=O)c2n[nH]c3c2CCC3)C1` [ZINC000955144887], the remaining activity at 1 µM is reported as 96.9%.
`Cc1c(Br)cccc1C(=O)N1CC[C@@H]2CCN(C)C[C@H]21` [ZINC000272592294] was tested, and the remaining activity at 1 µM was 79.1%.
Work on `OC[C@@H](CNC[C@H](O)c1ccc(F)c(Br)c1)CC1CCCC1` [ZINC000843092160] yielded a remaining activity at 1 µM of 16.2%.
Compound `CNC(=O)[C@@H](C)N1CCC2(CN(C(=O)c3c[nH]c4nccc-4c3)C2)C1` [ZINC001072835483] has a remaining activity at 1 µM of 81.8%.
`C[C@H](NC(=O)c1ccc2[nH]c(=O)c(=O)[nH]c2c1)[C@H](O)c1ccccc1` [ZINC000813849560] gave a remaining activity at 1 µM of 108%.
Work on `COC(=O)[C@H](NCC(C)(C)N1CCc2ccccc2C1)c1ccccc1` [ZINC000609803478] yielded a remaining activity at 1 µM of 49.8%.
With `CC(C)Sc1c(Cl)cccc1NC(=O)C(=O)N(C)C[C@H]1CCCN1C` [ZINC000421295130] the remaining activity at 1 µM was 77.9%.
`O[C@@H](CN1CCN(c2ccc(-c3nn[nH]n3)cc2F)CC1)C1CC1` [ZINC000738383044] showed a remaining activity at 1 µM of 118%.
`CC(C)CC(=O)N[C@@H](C(=O)N1CCC[C@H](N2CCCC2)C1)c1ccccc1` [ZINC000332414923] was tested, and the remaining activity at 1 µM was 87.2%.
Work on `C[C@H]1[C@H](N(C)C)CCN1c1snc(Cl)c1C#N` [ZINC000820594289] yielded a remaining activity at 1 µM of 104%.
Compound `C[C@H]1CCCN1CC(=O)N(C)[C@H]1CCN(C(=O)CC(C)(C)O)C1` [ZINC000937267298] has a remaining activity at 1 µM of 111%.
Compound `C(=C\c1ccccc1)/CNc1ccc2c(n1)CCC2` [ZINC001156463732] has a remaining activity at 1 µM of 32.6%.
`CN1CC[C@@H](C(=O)N2CC[C@@]3(CCN(Cc4nnn(C)n4)C3)C2)C1` [ZINC001041828396] was tested, and the remaining activity at 1 µM was 103%.
In the case of `CC(C)=CC(=O)N1CC[C@@H](CNC(=O)c2ccn(CCN(C)C)n2)C1` [ZINC000982403760], the remaining activity at 1 µM is reported as 104%.
In the case of `Cc1ccc(CN2[C@@H]3CC[C@H]2[C@@H](NC(=O)c2cn(C)cn2)C3)c(C)c1` [ZINC001095312060], the remaining activity at 1 µM is reported as 69.4%.
`Cc1nc(O)[nH]c1C(=O)NC[C@H]1CCN([C@H](C)C(=O)NC2CC2)C1` [ZINC001028614115] showed a remaining activity at 1 µM of 115%.
Compound `O[C@@H](CN1CC[C@@H](c2ccccc2F)C1)CC1(O)CCCCC1` [ZINC000878084395] has a remaining activity at 1 µM of 27.7%.
`CN(C)Cc1ccc(-c2cscc2CCO)cc1F` [ZINC000665143541] showed a remaining activity at 1 µM of 108%.
`Cc1cccc(CNc2nccn2Cc2ccccc2)c1C` [ZINC000508475661] was tested, and the remaining activity at 1 µM was 38.6%.
`C[C@H](Cn1cc(Br)cn1)NCc1cn2cc(Cl)ccc2n1` [ZINC000131571127] was tested, and the remaining activity at 1 µM was 76.6%.
Work on `O=C(NCC1(O)CN(C(=O)CCn2ccnc2)C1)[C@H]1CC=CCC1` [ZINC001041431730] yielded a remaining activity at 1 µM of 98.6%.
With `COCCC(=O)N1CC[C@@](O)(CNC(=O)[C@@H]2CCN(C)C2=O)C1` [ZINC001040614201] the remaining activity at 1 µM was 117%.
For `Cc1cnc(C(=O)N2C[C@H]3CN(C(=O)CN(C)C(C)C)C[C@H]3C2)cn1` [ZINC001055138151], the remaining activity at 1 µM was 103%.
Work on `C[C@@H](CO)N1CCCN([C@@H](C)C(=O)Nc2cccc(Cl)c2Cl)CC1` [ZINC000375486080] yielded a remaining activity at 1 µM of 48.7%.
In the case of `CC[C@H]1CCN(CC(=O)Nc2cc(Cl)ccc2C#N)[C@H]1C` [ZINC001307701283], the remaining activity at 1 µM is reported as 62.5%.
With `O=C(N[C@@H]1CCN(CCC2CCCC2)C[C@@H]1O)C1(C(F)F)CCC1` [ZINC001099969021] the remaining activity at 1 µM was 28.5%.
`Cn1nc(C(=O)N2CC(O)(CNC(=O)C3=CCOCC3)C2)ccc1=O` [ZINC001042722400] was tested, and the remaining activity at 1 µM was 125%.
For `CC1CCC(CNC(=O)C(=O)NC2CCN([C@@H]3CCC[C@@H]3O)CC2)CC1` (stereo partly drawn) [ZINC000564110976], the remaining activity at 1 µM was 78.2%.
Compound `Cc1cc(C)cc(NC(=O)[C@H](C)N2CC[C@@H](C3CCOCC3)C2)c1` [ZINC000374368469] has a remaining activity at 1 µM of 5.8%.
Compound `O=C(NCc1ccc(F)cc1C(F)(F)F)[C@@H]1CC12CCNCC2` [ZINC000136880129] has a remaining activity at 1 µM of 53.9%.
With `C[C@H](c1ccccn1)N1CC=C(c2ccc(O)cc2)CC1` [ZINC000176995469] the remaining activity at 1 µM was 61.4%.
Work on `COCCOCc1cccc(NC(=O)NCC2(C)CCN(C)CC2)c1` [ZINC000679555790] yielded a remaining activity at 1 µM of 103%.
In the case of `C[C@@H]1CCN(CC(=O)N(C)[C@@H](C)c2ccc(F)c(F)c2)C[C@@H]1C` [ZINC000501775665], the remaining activity at 1 µM is reported as 20.4%.
For `CCC(C)(C)N1CCN(c2nc(N)nc(C(F)(F)C(F)(F)F)n2)CC1` [ZINC000894427229], the remaining activity at 1 µM was 38.7%.
For `Cc1c(C(=O)NCC2CCCC2)cnc2c1c(=O)n(C)c(=O)n2C` [ZINC000438905691], the remaining activity at 1 µM was 105%.
Work on `CN1CCN(C2CCN(c3nc(N)c4ccccc4n3)CC2)CC1` [ZINC000866213504] yielded a remaining activity at 1 µM of 204%.
`CN(C[C@H]1CCCCO1)[C@@H]1CCN(C(=O)c2nc(Cl)cs2)C1` [ZINC000972168981] gave a remaining activity at 1 µM of 63.4%.
Work on `C[C@@H](CC(N)=O)NC[C@H](CO)Cc1cc(Br)ccc1F` [ZINC000453336584] yielded a remaining activity at 1 µM of 100%.
For `C[C@H](Cn1ncc2ccccc2c1=O)N[C@H]1CC[C@H](Cc2ccccc2)C1` [ZINC000188287346], the remaining activity at 1 µM was 0.9%.
`C[C@@H]1CCC[C@H](CCN2CCC([C@H](O)c3ncc[nH]3)CC2)C1` [ZINC000839577413] was tested, and the remaining activity at 1 µM was 28.7%.
With `C[C@@H](N[C@H]1Cc2ccccc2NC1=O)[C@@H]1C[C@H]1c1ccc(Cl)s1` [ZINC000528002641] the remaining activity at 1 µM was 84%.
`Cc1cc(C)cc(C2=CCN(CCC(=O)N3CCc4ccccc43)CC2)c1` [ZINC001168222793] showed a remaining activity at 1 µM of 13.7%.
With `COC(=O)[C@@H]1C[C@H](O)CN(C(=O)C(=O)N[C@H](C)C2CCOCC2)C1` [ZINC001326422624] the remaining activity at 1 µM was 99.2%.
Work on `O=C(C[C@]1(O)CCCNC1)Nc1cn2cc(Br)ncc2n1` [ZINC001515357045] yielded a remaining activity at 1 µM of 104%.
Compound `CC(C)N1CC[C@@H](N(C)S(=O)(=O)c2c(F)c(F)cc(F)c2F)C1` [ZINC000452107481] has a remaining activity at 1 µM of 36.9%.
In the case of `COc1ccc(-c2ccccc2)cc1CNCCC1(O)CCOCC1` [ZINC000285662957], the remaining activity at 1 µM is reported as 17.5%.
For `Cc1ccccc1NC(=O)CN1CCC[C@@H]1C[C@H](C)O` [ZINC000228149300], the remaining activity at 1 µM was 113%.
`O=C(CN1CC2CC1(c1ccccc1)C2)NC[C@@H]1CCCO1` [ZINC000662335416] was tested, and the remaining activity at 1 µM was 122%.
`O=C(Nc1cscc1Cl)C(=O)N[C@@H]1CCN(CC2CC2)C1` [ZINC000635049325] showed a remaining activity at 1 µM of 53.2%.
For `CS[C@@H]1CCC[C@H](NC(=O)NC2CCN([C@@H]3CCCC[C@@H]3O)CC2)C1` [ZINC000155998528], the remaining activity at 1 µM was 30.9%.
In the case of `O=C1NCCC[C@@H]1N1CC[C@@](O)(c2ccc(F)cc2)C1` [ZINC000777733869], the remaining activity at 1 µM is reported as 108%.
`C[C@H](C(=O)Nc1ccc(F)cc1Cl)N1CC[C@H](N2CCCC2)C1` [ZINC000533411740] showed a remaining activity at 1 µM of 79.7%.
`CC(C)N1CCN([C@H]2CCN(C(=O)CC3(O)CCCCC3)C2)CC1` [ZINC000363920872] gave a remaining activity at 1 µM of 88.9%.
For `CC(C)N1C[C@H](NC(=O)N[C@@H](C)c2ccc(Br)s2)[C@@H](C)C1` [ZINC000436303801], the remaining activity at 1 µM was 75.3%.
